Molecules are shown by their SMILES. Several values for one entry are separate records, joined by “and”; a condition that tells them apart may be missing. Equal values may be shown once. Entries after “also recorded” stand apart in the source; their conditions may differ. Marks after values point to notes of the source that are not given here.

Data set [1] is described as follows: Solubility, screen method, phosphate buffer pH 7.4, 1% DMSO. The class given is physicochemical. Conditions: phosphate buffer with 1% DMSO; 100 mM phosphate buffer pH 7.4, 1% DMSO; assay range 0.1 to 100 μM.
The nature of data set [2]: Co-factor experiment: microsome suspension with and without NADPH. The class given is in vitro ADME, human. The following applies: for Co-factor experiment: degradation with and without addition of NADPH compared. On the procedure:
Therefore, additional experiments comparing stability with and without the addition of NADPH cofactor and a very short incubation period were performed (Tables S4 and S5). […] Due to the rapid observed degradation in microsomes, we decided to investigate the stability of five compounds in human plasma, aiming for a broad range of stabilities (Table 2, Table S6). It should be noted that esterase-labile compounds are notoriously difficult to study in microsomal stability studies.[36]
Table S3 Evaluation of metabolic stability in human microsomes
No. Metabolic stability Comment
4k <10/<10 Low retention in chromatography
8 <10/<10 Low retention in chromatography.
Table S4 Results from the modified microsome assay where degradation with and without the addition of NADPH was compared […]
4d Very low peak area for the first time point,
4e Very low peak area for the first time point,
4f Very low peak area for the first time point,
5 Very low peak area for the first time point,
8 No degradation without co -factor […]
metabolism by the microsomes (consisting mainly of cytochrome P450 enzymes) or if it was due to other factors, the compounds (with the exception of 4k) were incubated in the microsome suspension both with and without the addition of NADPH. Samples […]
(§1) were taken at three timepoints, and the degradation was compared to determine if it was dependent on NADPH. Compound 4k […]
(§2) without the addition of NADPH. […]
(§3) microsomes that need to be activated by a co -factor.
(§4) Table S5 Percent of peak area found in microsome suspension 15 seconds after the addition of NADPH in comparison with the same amount dissolved in H2O/EtOH
(§5) No. Area at 0.25 min. in Area in solution % found in microsomes/NADPH (125 nM) microsome
(§6) Comparison with compounds in solution. A comparison was made between the peak area of the compounds in solution with that obtained in the microsome suspension directly after the addition of NADPH (about 0.25 minutes) (Table S5). Before the addition of NADPH, the compounds are equilibrated in the microsome suspension for approximately five minutes. All compounds were prepared in solution by diluting a portion of the DMSO solutions with H2O/EtOH (75:25) to 125 nM (the final concentration of compounds for analysis in the microsome assay).
(§7) For the compounds where no results from the microsome assay could be reported due to low peak area (4d, 4e, 4f & 5), less than one percent of the expected peak area as compared with the area in solution was detected. […]
(§8) degrade rapidly before the addition of the co-factor after five minutes in incubation. For compounds 4g, 4h, 4i & 4j, which were […]
(§9) higher relative peak areas were found. […]
(§10) without NADPH was only found at 15% of the area seen in solution in the microsome suspension.

Data set [3] in a line: Metabolic stability in human microsomes. The class given is in vitro ADME. The following applies: for Metabolic stability in human microsomes: 37 °C, 0.5 mg/mL protein, 1 μM compound, 1 mM NADPH; for Comment on microsome assay: Table S3.
Data set [4] can be described thus: Chemical stability in 1.0 M NaHCO3 and 1.0 M HCl.
Data set [5] is described as follows: Peak area in microsome suspension compared with compounds in solution. The class given is in vitro ADME, human. The following applies: peak area 15 seconds after addition of NADPH versus same amount (125 nM) in H2O/EtOH. On the procedure:
as §1, §2, §3, §4, §5, §6, §7, §8, §9, §10

Data set [6] in a line: Stability in simulated stomach acid (0.10 M HCl). Conditions: 0.10 M HCl (simulated stomach acid).
Data set [7] deals with porcine liver esterase. As to the kind of experiment: Stability in FaSSIF supplemented with esterase.
Data set [8] can be described thus: Thermal degradation of psilocin salts at 60 °C.
Data set [9] can be described thus: Photolytic degradation of psilocin salts.
Data set [10] can be described thus: Forced degradation of psilocin salts, acid (1.0 M HCl). Conditions: 1.0 M HCl.
A short description of data set [11]: Forced degradation of psilocin salts, oxidative (0.30% H2O2).
Data set [12] can be described thus: Forced degradation of psilocin salts, base (0.10 M NaOH). Conditions: 0.10 M NaOH.
The nature of data set [13]: General observations of psilocin salts in solid form in −18 °C freezer.
The conditions of data set [14]: cited from earlier work.

Broadly, the solubility is the concentration that dissolves in the medium under given conditions. Read a high solubility as a readily soluble substance. In general, half-life refers to the time needed for the level to fall by half in the phase considered. `CN(C)CCc1c[nH]c2cccc(OS(=O)(=O)O)c12` [Compound 6] showed a solubility in data set [1] of more than 90 µM. For the same compound, in data set [2], the Co-factor experiment result was “No degradation without co-factor”. Besides, in [3], the “Metabolic stability in human microsomes” value is on record as more than 200 μL/min/mg protein. For the same compound, in [3], the “Comment on microsome assay” value is given as “Rapid degradation”. In addition, the half-life at 5 mM in data set [4] (1.0 M HCl), in data set [4] (1.0 M NaHCO3) and in [6] was more than 167 h in each case. The “% found in microsome suspension” value in [5] came out at 15%.
As to `CC(C)COC(=O)Oc1cccc2[nH]cc(CCN(C)C)c12.O=CO` [Compound 4d], the solubility in data set [1] was more than 90 µM. For the same compound, the Co-factor experiment entry in [2] is “Very low peak area for the first time point, instability suspected”. In data set [3], the “Metabolic stability in human microsomes” value is >200^a μL/min/mg protein and >200 μL/min/mg protein; the “Comment on microsome assay” value is “Rapid degradation”. Also, the half-life at 5 mM in data set [4] (1.0 M HCl) was more than 167 h. Besides, the half-life at 24 h, 5 mM in [4] (1.0 M NaHCO3) was determined as 36.7 h. The “degradation rate among prodrugs” value in [7] (FaSSIF, 20 IU/mL esterase) was “fastest degradation”. For the same compound, the “% prodrug remaining, measured after 1 min” value in data set [7] (after 1 min at 20 IU/mL) is given as 7%. Also, in [7] (at 270 IU/mL), the predicted half-life is 1.2 s. For the same compound, the predicted abs. in [7] (calculated remaining prodrug available for GI absorption, predicted level after 5 min at 270 IU/mL (% remaining prodrug)) is 7.0 × 10^–77. This compound also displayed a half-life at 0.292 mM in data set [7] (pig, FaSSIF supplemented with porcine liver esterase (20 IU/mL)) of 15.6 ± 1.2 s. In data set [6], the half-life at 5 mM is more than 167 h.
`CCCC(=O)Oc1cccc2[nH]cc(CCN(C)C)c12.O=C(O)/C=C/C(=O)O` [Compound 4b] came in with a solubility in data set [1] of 87 µM. Further, in data set [2], the Co-factor experiment entry was “No degradation without co-factor”. Further, in [3], the “Metabolic stability in human microsomes” value was >200^a μL/min/mg protein and >200 μL/min/mg protein; the “Comment on microsome assay” value is “Rapid degradation”. For the same compound, the half-life at 24 h, 5 mM in data set [4] (1.0 M HCl) was found to be 15 h. The half-life at 24 h, 5 mM in [4] (1.0 M NaHCO3) was found to be 65 h. The “% found in microsome suspension” value in data set [5] is given as 0.3%. In [6], the half-life at 5 mM is more than 167 h.
In turn, `CN(C)CCc1c[nH]c2cccc(OC(=O)c3ccccc3)c12.O=C(O)/C=C/C(=O)O` [Compound 4h] displayed a solubility in data set [1] of more than 90 µM. Moreover, the Co-factor experiment result in data set [2] is “Degradation without co-factor”. The microsomal CLint in [2] (human, human microsome suspension, both with and without the addition of NADPH, read-out: intrinsic clearance) was more than 200 µL/min/mg. In data set [3], the “Metabolic stability in human microsomes” value was >200^a μL/min/mg protein and >200 μL/min/mg protein. For the same compound, the “Comment on microsome assay” value in data set [3] is “Rapid degradation”. Further, the half-life at 5 mM in data set [4] (1.0 M HCl) and in [6] was more than 167 h throughout. The compound also gave a half-life at 24 h, 5 mM in data set [4] (1.0 M NaHCO3) of 150 h. Moreover, in data set [5], the “% found in microsome suspension” value came to 44%.
In [1], `CN(C)CCc1c[nH]c2cccc(OC(=O)N3CCCCC3)c12.O=C(O)/C=C/C(=O)O` [Compound 4k] came in with a solubility of more than 90 µM. Also, the “Metabolic stability in human microsomes” value in data set [3] is <10/<10^b μL/min/mg protein and <10 μL/min/mg protein. Also, the half-life at 5 mM in [4] (1.0 M HCl), in data set [4] (1.0 M NaHCO3) and in data set [6] was more than 167 h throughout. Further, in data set [5], the “% found in microsome suspension” value is given as 79%.
Take `CN(C)CCc1c[nH]c2cccc(O)c12.OB(O)O` [Compound 9b]: the half-life was less than 11.7 h in [8]; <1000 ^b min in data set [9] (12900 lx, RT); >10,000 min in data set [10] (RT); less than 1 h in data set [11] (0.30% H2O2, RT); 6.67 h in data set [12] (RT). Further, the “time to complete degradation” value in data set [8] is given as not above 24 h; in [11] (0.30% H2O2) it was not above 3 h. Besides, the “% psilocin remaining” value in data set [8] (after 6 days (143 h)) worked out at 0%; in [9] (after 14 days, 12900 lx) it was 0%; in data set [10] (after 24 h compared with first measuring point at 1 h, LCMS) it was 93%; in [11] (0.30% H2O2, after 24 h), 0%; in [12] (after 24 h), 0%. Also, the “color (24 h)” value in [8] (water:acetonitrile 1:1) was “black”; in data set [9] (12900 lx, RT, water:acetonitrile 1:1), “black”. Moreover, the “time to complete breakdown” value in data set [9] (12900 lx, RT) is listed as not above 1 week. Further, in data set [9] (in air at RT for a week, dissolved salt), the “control sample stored in darkness” value is reported as “entirely degraded”. Besides, the color result in data set [10] (visual inspection after 24 h, RT) was “clear”; in data set [11] (0.30% H2O2, after 24 h, RT), “brown”; in data set [12] (after 24 h, RT), “black”. Besides, the “stability (solid form)” value in [13] (over 3 weeks in −18 °C freezer, visual inspection and LCMS) is reported as “stable enough to store as a solid in the freezer for an extended period; also recorded: no change”. Also, the hygroscopic entry in data set [13] (visual inspection) is reported as “no”.
Regarding `CCCCC(=O)Oc1cccc2[nH]cc(CCN(C)C)c12.O=C(O)/C=C/C(=O)O` [Compound 4c], the solubility in data set [1] was determined as 87 µM. Also, in data set [2], the Co-factor experiment entry is recorded as “No degradation without co-factor”. In addition, in data set [3], the “Metabolic stability in human microsomes” value was >200^a μL/min/mg protein and >200 μL/min/mg protein; the “Comment on microsome assay” value is given as “Rapid degradation”. The same compound registered a half-life at 24 h, 5 mM in [4] (1.0 M HCl) of 13.3 h. This compound also had a half-life at 24 h, 5 mM in data set [4] (1.0 M NaHCO3) of 50 h. Moreover, the “% found in microsome suspension” value in [5] is 0.2%. Further, in [6], the half-life at 5 mM was more than 167 h.
For the compound `CN(C)CCc1c[nH]c2cccc(O)c12` [psilocin freebase, 4-hydroxy-N,N-dimethyltryptamine], the “degradation of psilocin under UV radiation” value in [14] (254 nm, in EtOH, after 1.75 h) is reported as 9%. In addition, the “degradation of psilocin in NaOH solution” value in data set [14] (NaOH solution (1 M), after 2 h, ref 46 (Barrow et al.)) is listed as 60%. In data set [14] (oxidative conditions), the “degradation of psilocin in oxidative conditions” value is listed as “complete degradation after only two hours”.
